According to patent US20240124442A1, “TRICYCLIC-AMIDO-BICYCLIC PRMT5 INHIBITORS” (AMGEN INC., priority 2021, published 2024):

How the values were obtained:
HCT116 WT cells = test: HCT116 WT (parent) cell line proliferation / cell viability (CellTiter-Glo, 6 days); type: cell-based; conditions: Homo sapiens, HCT-116, 144 h, 6 days treatment
In short: (§1)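 Viability read by CellTiter-Glo luminescence after 6 days of compound treatment of HCT116 WT and MTAP-null cells (RPMI 1640, 10% FBS). Dose series were 1:3 steps from 1 or 10 μM (8–9 points), or 1:2 steps from 10 or 50 μM (22 points). IC50 from 4-parameter logistic or fixed-slope sigmoidal fit.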

HCT116 MTAP null cells = test: HCT116 MTAP null cell line proliferation / cell viability (CellTiter-Glo, 6 days); type: cell-based; conditions: 144 h; HCT116 MTAP null cells, 6 days treatment, CellTiter-Glo cell viability; read-out: HCT-116 MTAP null IC50
In short: as §1

IC50 (HCT116 WT cells) [nM]	IC50 (HCT116 MTAP null cells) [nM]	Structure (SMILES)
2590	40	CN(C(=O)c1ccc2nc(N)c3cnn(C)c3c2c1)[C@@H]1COc2cc(OC3CCC3)ccc21 [Example 676, 4-amino-N-((3S)-6-(cyclobutyloxy)-2,3-dihydro-1-benzofuran-3-yl)-N,1-dimethyl-1H-pyrazolo[4,3-c]quinoline-8-carboxamide]
37800	2070	CN(C(=O)c1ccc2nc(N)c3c(c2c1)COC3)C1COc2cc(Br)cnc21 (racemic) [Example 450, 4-amino-N-((3R)-6-bromo-2,3-dihydrofuro[3,2-b]pyridin-3-yl)-N-methyl-1,3-dihydrofuro[3,4-c]quinoline-8-carboxamide and 4-amino-N-((3S)-6-bromo-2,3-dihydrofuro[3,2-b]pyridin-3-yl)-N-methyl-1,3-dihydrofuro[3,4-c]quinoline-8-carboxamide]
8610	156	CCOc1ccc2c(c1)OC[C@H]2N(C)C(=O)c1cc2c3c(c(N)nc2cn1)COC3 [Example 674, 4-amino-N-((3S)-6-ethoxy-2,3-dihydro-1-benzofuran-3-yl)-N-methyl-1,3-dihydrofuro[3,4-c][1,7]naphthyridine-8-carboxamide]
10700	495	CN(C(=O)c1cc2c3c(c(N)nc2cc1F)COC3)C1COc2ncc(C(F)(F)F)cc21 [Example 212, 4-amino-7-fluoro-N-methyl-N-((3R)-5-(trifluoromethyl)-2,3-dihydrofuro[2,3-b]pyridin-3-yl)-1,3-dihydrofuro[3,4-c]-quinoline-8-carboxamide and 4-amino-7-fluoro-N-methyl-N-((3S)-5-(trifluoromethyl)-2,3-dihydrofuro[2,3-b]pyridin-3-yl)-1,3-dihydrofuro[3,4-c]quin-oline-8-carboxamide]
1820	46	CN(C(=O)c1ccc2nc(N)c3c(c2c1)COC3)[C@@H]1COc2cc(Br)ccc21 (single isomer, unassigned) [Example 329]
1020	10	C[C@H]1OCc2c1c(N)nc1cc(F)c(C(=O)N(C)[C@@H]3COc4cc(-c5cnn(C)c5)ccc43)cc21 [Example 217, (3R)-4-amino-7-fluoro-N,3-dimethyl-N-((3S)-6-(1-methyl-1H-pyrazol-4-yl)-2,3-dihydro-1-benzofuran-3-yl)-1,3-dihydrofuro[3,4-c]quinoline-8-carboxamide]
13400	508	CN(C(=O)c1ccc2nc(N)c(I)cc2c1)[C@@H]1COCc2nc(C(F)(F)F)ccc21 [Example 315, 2-amino-3-iodo-N-methyl-N-((5S)-2-(trifluoromethyl)-5,8-dihydro-6H-pyrano[3,4-b]pyridin-5-yl)-6-quinoline-carboxamide]
245	9	C[C@H]1OCc2c1c(N)nc1cc(F)c(C(=O)N(C)[C@@H]3COc4cc(C(F)(F)F)ccc43)cc21 [Example 466, (3R)-4-amino-7-fluoro-N,3-dimethyl-N-((3S)-6-(trifluoromethyl)-2,3-dihydro-1-benzofuran-3-yl)-1,3-dihydrofuro[3,4-c]quinoline-8-carboxamide]
9460	192	CN(C(=O)c1cc2c(cc1F)nc(N)c1c2cnn1C)[C@@H]1CCCc2nc(C(F)(F)F)ccc21 (single isomer, unassigned) [Example 439]
3670	32	CN(C(=O)c1ccc2nc(N)c3cnn(C)c3c2c1)[C@@H]1COc2cc(-c3ccn(C)c3)ccc21 [Example 616, 4-amino-N,1-dimethyl-N-((3S)-6-(1-methyl-1H-pyrrol-3-yl)-2,3-dihydro-1-benzofuran-3-yl)-1H-pyrazolo[4,3-c]quinoline-8-carboxamide]
304	5	CN(C(=O)c1cc2c(cc1F)nc(N)c1cnn(C)c12)[C@@H]1COc2cc(-c3cnn(C(F)(F)F)c3)ccc21 [Example 247, 4-amino-7-fluoro-N,1-dimethyl-N-((3S)-6-(1-(trifluoromethyl)-1H-pyrazol-4-yl)-2,3-dihydro-1-benzofuran-3-yl)-1H-pyrazolo[4,3-c]quinoline-8-carboxamide]
841	26	Cc1cc(-c2ccc3c(c2)OC[C@H]3N(C)C(=O)c2ccc3nc(N)c4cnn(C)c4c3c2)co1 [Example 632, 4-amino-N,1-dimethyl-N-((3S)-6-(5-methyl-3-furanyl)-2,3-dihydro-1-benzofuran-3-yl)-1H-pyrazolo[4,3-c]quinoline-8-carboxamide]
687	41	Cc1cc2nc(N)c3cnn(C)c3c2cc1C(=O)N(C)[C@H]1COCc2c1ccc(C(F)(F)F)c2F (single isomer, unassigned) [Example 437]
13000	215	CCN(C(=O)c1cc2c(cn1)nc(N)c1cnn(C)c12)C1COc2cc(C(F)(F)F)ccc21 (stereo in doubt) [Example 238, 4-amino-N-ethyl-1-methyl-N-((3S)-6-(trifluoromethyl)-2,3-dihydro-1-benzofuran-3-yl)-1H-pyrazolo[4,3-c][1,7]naph-thyridine-8-carboxamide]
710	23	CN(C(=O)c1cc2c(cc1F)nc(N)c1cnn(C)c12)C1CSc2cc(Br)ccc21 (racemic) [Example 479, 4-amino-N-((3R)-6-bromo-2,3-dihydro-1-benzothiophen-3-yl)-7-fluoro-N,1-dimethyl-1H-pyrazolo[4,3-c]quinoline-8-carboxamide and 4-amino-N-((3S)-6-bromo-2,3-dihydro-1-benzothiophen-3-yl)-7-fluoro-N,1-dimethyl-1H-pyrazolo[4,3-c]quinoline-8-carboxamide]
19100	2300	C[C@@H]1OC[C@H](N(C)C(=O)c2ccc3nc(N)c4c(cnn4C)c3c2)c2ccc(C(F)(F)F)cc21 (single isomer, unassigned) [Example 604]
168	10	CN(C(=O)c1cc2c(cn1)nc(N)c1cnn(C)c12)[C@@H]1COc2cc(OC(F)(F)F)ccc21 [Example 239, 4-amino-N,1-dimethyl-N-((3S)-6-(trifluoromethoxy)-2,3-dihydro-1-benzofuran-3-yl)-1H-pyrazolo[4,3-c][1,7]-naphthyridine-8-carboxamide]
417	16	CN(C(=O)c1cc2c3c(c(N)nc2nc1Cl)COC3)[C@@H]1COCc2cc(C(F)(F)F)ccc21 [Example 276, 4-amino-7-chloro-N-methyl-N-((4S)-7-(trifluoromethyl)-3,4-dihydro-1H-2-benzopyran-4-yl)-1,3-dihydrofuro[3,4-c][1,8]-naphthyridine-8-carboxamide]
14100	168	Cc1nn(C)c2c1c(N)nc1cnc(C(=O)N(C)[C@@H]3COCc4cc(C#N)ccc43)cc12 [Example 521, 4-amino-N-((4S)-7-cyano-3,4-dihydro-1H-2-benzopyran-4-yl)-N,1,3-trimethyl-1H-pyrazolo[4,3-c][1,7]naphthyridine-8-carboxamide]
18600	722	CCN(C(=O)c1ccc2nc(N)c3c(c2c1)CO[C@@H]3C)[C@H]1COc2cc(C(F)(F)F)ccc21 (single isomer, unassigned) [Example 540]
3910	48	CN(C(=O)c1ccc2nc(N)c3cnn(C)c3c2c1)[C@@H]1COCc2c1ccc(F)c2F (single isomer, unassigned) [Example 409]
